ChEMBL document CHEMBL5120877, “Silybins are stereospecific regulators of the 20S proteasome” (Bioorg Med Chem, 2022)
Activity calls are given as the source filed them. The calls are words filed in the database; no cut-off is given here.

What was measured:
Settings in all cases: filed as activator, time 90.0 min
Saccharomyces cerevisiae [1] = test: Activation of chymotrypsin-like activity of yeast 20s proteasome using suc-LLVY-AMC as flurogenic substrate preincubated for 30 mins followed by substrate addition and measured after 1 hr by fluorescence assay
Saccharomyces cerevisiae [2] = test: Activation of PGPHL-peptidase activity of yeast 20s proteasome using […] as flurogenic substrate preincubated for 30 mins followed by substrate addition and measured after 1 hr by fluorescence assay
Saccharomyces cerevisiae [3] = test: Activation of trypsin-like activity of yeast 20s proteasome using […] as flurogenic substrate preincubated for 30 mins followed by substrate addition and measured after 1 hr by fluorescence assay

| Activity (Saccharomyces cerevisiae [1]) | Activity (Saccharomyces cerevisiae [2]) | Activity (Saccharomyces cerevisiae [3]) | SMILES |
| --- | --- | --- | --- |
| Active | Active | Active | COc1cc([C@H]2Oc3cc([C@H]4Oc5cc(O)cc(O)c5C(=O)[C@@H]4O)ccc3O[C@@H]2CO)ccc1O |
| Active | Active | Active | COc1cc([C@@H]2Oc3cc([C@H]4Oc5cc(O)cc(O)c5C(=O)[C@@H]4O)ccc3O[C@H]2CO)ccc1O |
